# Article PMC7180948, “New Insights into 4-Anilinoquinazolines as Inhibitors of Cardiac Troponin I–Interacting Kinase (TNNi3K)” (Molecules, 2020)
# Experiments:
# Assay in all cases: biochemical
# Parameters in all cases: KINOMEscan competition binding panel (Eurofins DiscoverX), single concentration, % inhibition
# Details in all cases: read-out: 7 at 1 µM % inhibition
# MKNK2 = MKNK2 (Homo sapiens, UniProt Q9HBH9)
# In short: (§1)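 Selectivity profile from a KINOMEscan run against >400 human kinases; test concentration 1 µM.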
# TRPM6 = TRPM6 (Homo sapiens, UniProt Q9BX84)
# In short: as §1
# NIM1 = molecular target: T1, NIM1 (Homo sapiens, UniProt Q8IY84)
# T1 construct: gene NIM1K
# In short: as §1
# TSSK3 = TSSK3 (Homo sapiens, UniProt Q96PN8)
# In short: as §1
# ABL1-nonphosphorylated = molecular target: T2, ABL1-nonphosphorylated (Homo sapiens, UniProt P00519)
# T2 construct: nonphosphorylated
# In short: as §1
# CDK9 = CDK9 (Homo sapiens, UniProt P50750)
# In short: as §1
# MUSK = MUSK (Homo sapiens, UniProt O15146)
# In short: as §1
# MEK6 = molecular target: T3, MEK6 (Homo sapiens, UniProt P52564)
# T3 construct: gene MAP2K6
# In short: as §1
# RET(V804L) = RET(V804L) (Homo sapiens, UniProt P07949, V804L)
# In short: as §1
# [1] = molecular target: T4, TYK2(JH2domain-pseudokinase) (Homo sapiens, UniProt P29597)
# T4 construct: JH2domain-pseudokinase
# In short: as §1
# PDPK1 = PDPK1 (Homo sapiens, UniProt O15530)
# In short: as §1
# [2] = molecular target: T5, ABL1(Q252H)-phosphorylated (Homo sapiens, UniProt P00519, Q252H)
# T5 construct: phosphorylated
# In short: as §1
# EPHA7 = EPHA7 (Homo sapiens, UniProt Q15375)
# In short: as §1
# PRKD3 = PRKD3 (Homo sapiens, UniProt O94806)
# In short: as §1
# PCTK2 = molecular target: T6, PCTK2 (Homo sapiens, UniProt Q00537)
# T6 construct: gene CDK17
# In short: as §1
# FLT3(ITD,F691L) = FLT3(ITD,F691L) (Homo sapiens, UniProt P36888, F691L/ITD)
# In short: as §1
# PRKCQ = PRKCQ (Homo sapiens, UniProt Q04759)
# In short: as §1
# PRP4 = molecular target: T7, PRP4 (Homo sapiens, UniProt Q13523)
# T7 construct: gene PRPF4B
# In short: as §1
# CAMK1D = CAMK1D (Homo sapiens, UniProt Q8IU85)
# In short: as §1
# IKK-alpha = molecular target: T8, IKK-alpha (Homo sapiens, UniProt O15111)
# T8 construct: gene CHUK
# In short: as §1
# CDK5 = CDK5 (Homo sapiens, UniProt Q00535)
# In short: as §1
# MINK = molecular target: T9, MINK (Homo sapiens, UniProt Q8N4C8)
# T9 construct: gene MINK1
# In short: as §1
# GRK7 = GRK7 (Homo sapiens, UniProt Q8WTQ7)
# In short: as §1
# EGFR(E746-A750del) = EGFR(E746-A750del) (Homo sapiens, UniProt P00533, DEL746-750)
# In short: as §1
# Sequence of GRK7 (Q8WTQ7 whole entry): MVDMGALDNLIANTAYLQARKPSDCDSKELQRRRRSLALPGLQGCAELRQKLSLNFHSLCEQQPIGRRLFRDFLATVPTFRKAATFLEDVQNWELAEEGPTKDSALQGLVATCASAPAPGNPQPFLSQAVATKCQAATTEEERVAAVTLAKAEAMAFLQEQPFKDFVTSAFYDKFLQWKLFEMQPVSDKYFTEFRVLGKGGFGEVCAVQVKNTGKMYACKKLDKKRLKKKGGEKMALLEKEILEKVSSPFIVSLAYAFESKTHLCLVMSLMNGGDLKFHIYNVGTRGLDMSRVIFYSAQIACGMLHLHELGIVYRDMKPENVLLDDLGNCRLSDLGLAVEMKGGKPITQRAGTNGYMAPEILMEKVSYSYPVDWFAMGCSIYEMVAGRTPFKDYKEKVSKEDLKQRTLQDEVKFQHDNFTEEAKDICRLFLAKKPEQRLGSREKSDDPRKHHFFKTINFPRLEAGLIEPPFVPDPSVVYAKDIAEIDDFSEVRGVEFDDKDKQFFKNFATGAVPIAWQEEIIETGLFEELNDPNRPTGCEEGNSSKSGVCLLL
# T8 sequence (O15111 whole entry): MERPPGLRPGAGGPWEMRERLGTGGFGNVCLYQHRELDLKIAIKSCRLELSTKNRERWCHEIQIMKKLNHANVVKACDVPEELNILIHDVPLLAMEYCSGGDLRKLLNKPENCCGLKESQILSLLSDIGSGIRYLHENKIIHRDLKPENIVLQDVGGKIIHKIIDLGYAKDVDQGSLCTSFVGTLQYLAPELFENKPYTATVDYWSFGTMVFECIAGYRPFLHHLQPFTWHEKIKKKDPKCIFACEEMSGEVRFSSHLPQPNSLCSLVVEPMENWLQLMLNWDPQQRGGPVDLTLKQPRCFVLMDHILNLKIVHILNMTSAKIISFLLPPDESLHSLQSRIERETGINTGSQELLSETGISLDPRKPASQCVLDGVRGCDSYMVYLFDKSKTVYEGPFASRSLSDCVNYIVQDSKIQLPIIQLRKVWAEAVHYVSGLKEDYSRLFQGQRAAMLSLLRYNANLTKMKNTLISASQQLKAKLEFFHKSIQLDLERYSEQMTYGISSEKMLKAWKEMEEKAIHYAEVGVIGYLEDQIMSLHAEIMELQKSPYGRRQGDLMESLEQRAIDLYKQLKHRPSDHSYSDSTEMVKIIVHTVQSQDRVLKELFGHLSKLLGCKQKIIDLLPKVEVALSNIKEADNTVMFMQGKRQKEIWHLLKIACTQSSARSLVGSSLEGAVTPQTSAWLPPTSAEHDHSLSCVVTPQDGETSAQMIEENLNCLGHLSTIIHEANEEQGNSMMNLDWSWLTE
# Sequence of MKNK2 (Q9HBH9 whole entry): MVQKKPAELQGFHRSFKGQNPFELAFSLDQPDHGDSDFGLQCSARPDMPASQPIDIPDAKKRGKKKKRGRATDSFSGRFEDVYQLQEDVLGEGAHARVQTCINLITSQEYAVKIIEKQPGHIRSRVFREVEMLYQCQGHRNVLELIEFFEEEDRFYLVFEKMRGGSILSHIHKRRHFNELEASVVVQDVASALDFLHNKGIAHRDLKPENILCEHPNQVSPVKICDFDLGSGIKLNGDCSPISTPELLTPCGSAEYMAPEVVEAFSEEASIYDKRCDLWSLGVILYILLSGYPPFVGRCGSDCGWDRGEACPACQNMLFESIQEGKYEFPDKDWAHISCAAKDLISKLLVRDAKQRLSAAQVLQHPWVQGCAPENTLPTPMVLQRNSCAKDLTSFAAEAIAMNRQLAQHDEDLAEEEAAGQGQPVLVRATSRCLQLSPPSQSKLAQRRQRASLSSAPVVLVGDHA
# Sequence of CAMK1D (Q8IU85 whole entry): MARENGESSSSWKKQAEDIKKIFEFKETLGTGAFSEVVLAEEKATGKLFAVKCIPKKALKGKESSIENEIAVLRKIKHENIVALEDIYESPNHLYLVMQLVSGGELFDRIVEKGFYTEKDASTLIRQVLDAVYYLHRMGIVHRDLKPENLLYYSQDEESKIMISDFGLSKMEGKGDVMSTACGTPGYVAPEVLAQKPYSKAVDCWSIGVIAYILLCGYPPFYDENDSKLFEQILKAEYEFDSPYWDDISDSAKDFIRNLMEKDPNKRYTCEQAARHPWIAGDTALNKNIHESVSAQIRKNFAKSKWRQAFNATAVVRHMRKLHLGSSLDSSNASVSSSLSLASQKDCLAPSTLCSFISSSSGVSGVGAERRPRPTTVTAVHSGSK
# Sequence of EGFR(E746-A750del) (P00533 with tags, fused parts or gaps DEL746-750): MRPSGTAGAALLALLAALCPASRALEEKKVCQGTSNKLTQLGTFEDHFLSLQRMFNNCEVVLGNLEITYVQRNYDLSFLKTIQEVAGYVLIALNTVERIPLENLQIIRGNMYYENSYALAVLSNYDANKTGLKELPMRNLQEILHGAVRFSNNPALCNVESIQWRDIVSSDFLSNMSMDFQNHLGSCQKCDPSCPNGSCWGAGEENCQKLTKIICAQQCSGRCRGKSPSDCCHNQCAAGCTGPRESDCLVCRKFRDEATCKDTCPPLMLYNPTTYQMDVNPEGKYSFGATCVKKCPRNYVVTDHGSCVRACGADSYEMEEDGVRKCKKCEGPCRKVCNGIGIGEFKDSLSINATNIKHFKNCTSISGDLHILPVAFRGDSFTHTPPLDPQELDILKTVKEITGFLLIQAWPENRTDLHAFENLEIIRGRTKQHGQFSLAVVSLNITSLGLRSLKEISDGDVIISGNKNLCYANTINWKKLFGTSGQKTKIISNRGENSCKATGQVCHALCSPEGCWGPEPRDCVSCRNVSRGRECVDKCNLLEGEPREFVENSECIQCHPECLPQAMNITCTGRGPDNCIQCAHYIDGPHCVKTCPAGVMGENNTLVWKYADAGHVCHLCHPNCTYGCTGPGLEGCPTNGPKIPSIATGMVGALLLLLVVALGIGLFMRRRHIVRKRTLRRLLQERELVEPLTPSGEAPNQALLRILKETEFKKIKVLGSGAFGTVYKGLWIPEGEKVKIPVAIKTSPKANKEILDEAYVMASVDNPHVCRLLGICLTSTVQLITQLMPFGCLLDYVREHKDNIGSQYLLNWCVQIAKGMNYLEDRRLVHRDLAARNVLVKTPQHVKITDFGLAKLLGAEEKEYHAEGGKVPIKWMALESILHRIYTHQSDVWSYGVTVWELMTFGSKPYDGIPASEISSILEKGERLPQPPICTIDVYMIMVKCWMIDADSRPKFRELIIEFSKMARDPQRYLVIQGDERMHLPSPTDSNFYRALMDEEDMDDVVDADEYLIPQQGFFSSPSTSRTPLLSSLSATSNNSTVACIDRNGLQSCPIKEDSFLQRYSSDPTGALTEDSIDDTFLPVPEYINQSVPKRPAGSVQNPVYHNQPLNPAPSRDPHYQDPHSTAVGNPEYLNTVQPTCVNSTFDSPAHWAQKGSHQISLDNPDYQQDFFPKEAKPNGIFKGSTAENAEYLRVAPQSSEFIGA
# T4 sequence (P29597 whole entry): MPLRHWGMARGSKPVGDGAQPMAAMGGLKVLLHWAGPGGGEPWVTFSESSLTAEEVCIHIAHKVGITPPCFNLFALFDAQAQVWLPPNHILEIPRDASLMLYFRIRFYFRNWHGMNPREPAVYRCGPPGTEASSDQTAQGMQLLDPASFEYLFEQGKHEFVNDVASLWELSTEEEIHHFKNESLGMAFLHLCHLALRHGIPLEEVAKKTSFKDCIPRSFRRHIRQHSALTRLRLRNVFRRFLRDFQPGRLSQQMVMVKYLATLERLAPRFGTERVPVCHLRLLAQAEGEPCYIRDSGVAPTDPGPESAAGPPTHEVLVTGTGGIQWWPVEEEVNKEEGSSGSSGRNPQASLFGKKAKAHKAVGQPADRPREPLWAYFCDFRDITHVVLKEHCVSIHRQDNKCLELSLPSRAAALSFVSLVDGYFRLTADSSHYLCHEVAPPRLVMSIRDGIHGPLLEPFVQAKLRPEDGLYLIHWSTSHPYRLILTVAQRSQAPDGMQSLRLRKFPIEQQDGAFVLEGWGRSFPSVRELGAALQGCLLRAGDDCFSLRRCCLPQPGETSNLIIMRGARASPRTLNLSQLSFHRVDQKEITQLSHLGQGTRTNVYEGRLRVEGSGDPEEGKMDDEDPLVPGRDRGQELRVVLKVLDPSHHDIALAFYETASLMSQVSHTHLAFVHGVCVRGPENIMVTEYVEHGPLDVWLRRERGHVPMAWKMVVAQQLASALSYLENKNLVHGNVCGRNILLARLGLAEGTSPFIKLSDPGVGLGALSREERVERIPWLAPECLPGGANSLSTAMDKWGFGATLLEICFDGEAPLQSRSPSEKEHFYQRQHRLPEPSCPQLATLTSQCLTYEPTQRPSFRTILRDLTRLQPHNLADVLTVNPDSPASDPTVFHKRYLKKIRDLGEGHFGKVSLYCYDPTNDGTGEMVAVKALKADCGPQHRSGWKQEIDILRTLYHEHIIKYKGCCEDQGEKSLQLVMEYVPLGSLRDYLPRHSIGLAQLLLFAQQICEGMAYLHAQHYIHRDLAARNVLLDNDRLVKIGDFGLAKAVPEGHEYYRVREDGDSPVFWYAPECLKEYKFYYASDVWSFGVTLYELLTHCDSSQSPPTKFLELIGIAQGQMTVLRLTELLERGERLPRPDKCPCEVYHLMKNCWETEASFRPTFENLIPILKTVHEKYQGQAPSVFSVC
# Sequence of FLT3(ITD,F691L) (P36888 564-993 F691L): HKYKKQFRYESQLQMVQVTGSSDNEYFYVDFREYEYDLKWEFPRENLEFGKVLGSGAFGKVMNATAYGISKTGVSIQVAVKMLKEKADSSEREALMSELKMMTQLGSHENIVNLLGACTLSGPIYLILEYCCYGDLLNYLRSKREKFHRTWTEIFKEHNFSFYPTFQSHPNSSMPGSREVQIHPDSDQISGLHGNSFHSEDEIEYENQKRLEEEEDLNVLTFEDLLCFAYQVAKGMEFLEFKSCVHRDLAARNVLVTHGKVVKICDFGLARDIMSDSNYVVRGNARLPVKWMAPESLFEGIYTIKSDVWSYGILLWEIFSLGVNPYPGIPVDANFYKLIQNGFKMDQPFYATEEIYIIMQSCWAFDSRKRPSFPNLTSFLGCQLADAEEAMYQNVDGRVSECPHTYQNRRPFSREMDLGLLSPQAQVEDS
smiles,measurement,setting,value
"CNS(=O)(=O)c1ccc(N(C)C)c(Nc2ncnc3cc(OC)c(OC)cc23)c1 [compound 7, 3-((6,7-dimethoxyquinazolin-4-yl)amino)-4-(dimethylamino)-N-methylbenzenesulfonamide]",inhibition at 1 µM,MKNK2,13%
same,inhibition at 1 µM,TRPM6,25%
same,inhibition at 1 µM,NIM1,31%
same,inhibition at 1 µM,TSSK3,0%
same,inhibition at 1 µM,ABL1-nonphosphorylated,21%
same,inhibition at 1 µM,CDK9,0%
same,inhibition at 1 µM,MUSK,0%
same,inhibition at 1 µM,MEK6,0%
same,inhibition at 1 µM,RET(V804L),0%
same,inhibition at 1 µM,[1],0%
same,inhibition at 1 µM,PDPK1,0%
same,inhibition at 1 µM,[2],79%
same,inhibition at 1 µM,EPHA7,0%
same,inhibition at 1 µM,PRKD3,7%
same,inhibition at 1 µM,PCTK2,0%
same,inhibition at 1 µM,"FLT3(ITD,F691L)",22%
same,inhibition at 1 µM,PRKCQ,28%
same,inhibition at 1 µM,PRP4,24%
same,inhibition at 1 µM,CAMK1D,0%
same,inhibition at 1 µM,IKK-alpha,68%
same,inhibition at 1 µM,CDK5,0%
same,inhibition at 1 µM,MINK,18%
same,inhibition at 1 µM,GRK7,23%
same,inhibition at 1 µM,EGFR(E746-A750del),25%
